Measurements published in ChEMBL document CHEMBL4765464, “Discovery of BMS-986144, a Third-Generation, Pan-Genotype NS3/4A Protease Inhibitor for the Treatment of Hepatitis C Virus Infection” (J Med Chem, 2020).

Experiments:
[1] = Metabolic stability in human liver microsomes assessed as half-life incubated for 5 to 45 mins in presence of NADPH by LC-MS analysis; format: ADME, Microsome; conditions: time 5-45 min
[2] = Inhibition of recombinant full length NS3/4A protease in Hepatitis C virus subtype 3a infected in human HuH7 cells using Ac-Asp-Glu-Asp (EDANS)-Glu-Glu-Abu-(COO) Ala-Ser-Lys (DABCYL)-NH2 as substrate by FRET assay; conditions: Huh-7
[3] = Inhibition of recombinant full length NS3/4A protease in Hepatitis C virus subtype 1a replicon infected in human HuH7 cells preincubated for 3 days followed by substrate addition and measured after 2 hrs by renilla luciferase reporter gene assay; format: cell-based; conditions: Huh-7
[4] = Inhibition of recombinant full length NS3/4A R155K mutant protease in Hepatitis C virus subtype 1a replicon infected in human HuH7 cells preincubated for 3 days followed by substrate addition and measured after 2 hrs by renilla luciferase reporter gene assay; format: cell-based; conditions: Huh-7
[5] = Inhibition of recombinant full length NS3/4A protease in Hepatitis C virus subtype 2a replicon infected in human HuH7 cells preincubated for 3 days followed by substrate addition and measured after 2 hrs by renilla luciferase reporter gene assay; format: cell-based; conditions: Huh-7
[6] = Inhibition of recombinant full length NS3/4A protease in Hepatitis C virus subtype 3a replicon infected in human HuH7 cells preincubated for 3 days followed by substrate addition and measured after 2 hrs by renilla luciferase reporter gene assay; format: cell-based; conditions: Huh-7
[7] = Inhibition of recombinant full length NS3/4A protease in Hepatitis C virus subtype 1b replicon infected in human HuH7 cells preincubated for 3 days followed by substrate addition and measured after 2 hrs by renilla luciferase reporter gene assay; format: cell-based; conditions: Huh-7
[8] = Oral bioavailability in rat at 5 mg/kg; format: ADME, organism-based; conditions: in vivo
[9] = Cmax in rat at 5 mg/kg, po; format: ADME, organism-based; set-up: route oral, dose 5 mg/kg; conditions: in vivo
[10] = Drug concentration in rat liver at 5 mg/kg, po measured upto 24 hrs; format: ADME, organism-based; conditions: read-out: Ct
[11] = Inhibition of recombinant full length NS3/4A D168V mutant protease in Hepatitis C virus subtype 1b replicon infected in human HuH7 cells preincubated for 3 days followed by substrate addition and measured after 2 hrs by renilla luciferase reporter gene assay; format: cell-based; conditions: Huh-7
[12] = Half life in rat at 1 mg/kg, iv; format: ADME, organism-based; conditions: in vivo
[13] = Drug concentration in rat plasma at 5 mg/kg, po measured upto 24 hrs; format: ADME, organism-based; conditions: read-out: Ct
[14] = Clearance in rat at 1 mg/kg, iv; format: ADME, organism-based; conditions: in vivo
[15] = Ratio of drug concentration in liver to plasma in rat at 5 mg/kg, po measured upto 24 hrs; format: ADME, organism-based; conditions: liver and plasma
[16] = AUC (0 to 24 hrs) in rat at 5 mg/kg, po; format: ADME, organism-based; set-up: time < 24 hr, route oral, dose 5 mg/kg; conditions: in vivo
[17] = Half-life in cynomolgus monkey at 3 mg/kg, po or 1 mg/kg, iv; format: ADME, organism-based, Macaca fascicularis; conditions: in vivo
[18] = AUC in rat at 5 mg/kg, po or 1 mg/kg, iv; format: ADME, organism-based; set-up: dose 5 mg/kg; conditions: in vivo
[19] = AUC in cynomolgus monkey at 3 mg/kg, po or 1 mg/kg, iv; format: ADME, organism-based, Macaca fascicularis; set-up: dose 3 mg/kg; conditions: in vivo
[20] = Half-life in dog at 3 mg/kg, po or 1 mg/kg, iv; format: ADME, organism-based, Canis lupus familiaris; conditions: in vivo
[21] = Drug concentration in dog plasma at 3 mg/kg, po measured upto 24 hrs; format: ADME, organism-based, Canis lupus familiaris; conditions: read-out: Ct
[22] = AUC in dog at 3 mg/kg, po or 1 mg/kg, iv; format: ADME, organism-based, Canis lupus familiaris; set-up: dose 3 mg/kg; conditions: in vivo
[23] = Clearance in rat at 5 mg/kg, po or 1 mg/kg, iv; format: ADME, organism-based; conditions: in vivo
[24] = Clearance in dog at 3 mg/kg, po or 1 mg/kg, iv; format: ADME, organism-based, Canis lupus familiaris; conditions: in vivo

| Structure (SMILES) | half-life [1] | IC50 [2] | EC50 [3] | EC50 [4] | EC50 [5] | EC50 [6] | EC50 [7] | EC50 [11] | also measured |
| --- | --- | --- | --- | --- | --- | --- | --- | --- | --- |
| COc1cnc(O[C@@H]2C[C@H]3C(=O)N[C@]4(C(=O)NS(=O)(=O)C5CC5)C[C@H]4/C=C\CCCCC[C@H](NC(=O)OC(C)(C)C)C(=O)N3C2)c2cc(Cl)ccc12 | 6.4 min | 51 nM |  |  |  |  |  |  |  |
| C[C@@H]1CC/C=C\[C@@H]2C[C@@]2(C(=O)NS(=O)(=O)C2CC2)NC(=O)[C@@H]2C[C@@H](Oc3nccc4ccc(F)cc34)CN2C(=O)[C@@H](NC(=O)OC(C)(C)C(F)(F)F)[C@H](C)C1 | 10 min | 20 nM | 1 nM | 21 nM | 3 nM | 196 nM | 0.3 nM |  |  |
| COc1cnc(O[C@@H]2C[C@H]3C(=O)N[C@]4(C(=O)NS(=O)(=O)C5(C)CC5)C[C@H]4/C=C\CC[C@@H](C)C[C@@H](C)[C@H](NC(=O)OC(C)(C)C(F)(F)F)C(=O)N3C2)c2ccccc12 | 15 min | 0.9 nM | 0.8 nM | 1.6 nM | 0.6 nM | 5 nM | 0.3 nM | 4.7 nM | bioavailability [8]: 60%; Cmax [9]: 5.29 µM; concentration at 24 h [10]: 5.74 µM; half-life [12]: 342 min; concentration at 24 h [13]: 0.226 µM; clearance [14]: 0.102 L/h/kg; Kp at 24 h [15]: 25; AUC(0-t) at 24 h [16]: 34.2 µM·h |
| CC[C@@H]1CCCC/C=C\[C@@H]2C[C@@]2(C(=O)NS(=O)(=O)C2CC2)NC(=O)[C@@H]2C[C@@H](Oc3ncc(OC)c4ccc(Cl)cc34)CN2C(=O)[C@H]1NC(=O)OC(C)(C)C(F)(F)F | 48 min | 29.5 nM | 0.84 nM | 45.2 nM | 2.1 nM |  | 0.47 nM | 4.8 nM |  |
| CC[C@@H]1C[C@H](C)CC/C=C\[C@@H]2C[C@@]2(C(=O)NS(=O)(=O)C2(C)CC2)NC(=O)[C@@H]2C[C@@H](Oc3ncc(OC)c4ccccc34)CN2C(=O)[C@H]1NC(=O)OC(C)(C)C(F)(F)F | 23 min | 1.9 nM | 0.8 nM | 5.4 nM | 1.1 nM | 7.4 nM | 0.4 nM | 5.4 nM | bioavailability [8]: 42%; Cmax [9]: 3.03 µM; concentration at 24 h [10]: 2.67 µM; half-life [12]: 438 min; concentration at 24 h [13]: 0.229 µM; clearance [14]: 0.102 L/h/kg; Kp at 24 h [15]: 12; AUC(0-t) at 24 h [16]: 22.5 µM·h |
| C=C[C@@H]1C[C@]1(NC(=O)[C@@H]1C[C@@H](Oc2ncc(OC)c3ccc(Cl)cc23)CN1C(=O)[C@@H](NC(=O)OC(C)(C)C)C(C)(C)C)C(=O)NS(=O)(=O)C1CC1 |  | 395 nM | 4 nM | 150 nM | 217 nM | 407 nM | 1.2 nM | 187 nM | half-life [17]: 78 min; bioavailability [8]: 14%; AUC [18]: 1.2 µM·h; concentration at 24 h [10]: 15 µM; AUC [19]: 0.65 µM·h; half-life [20]: 60 min; concentration at 24 h [21]: < 0.01 µM; concentration at 24 h [13]: 0.033 µM; AUC [22]: 2.2 µM·h; clearance [23]: 2.28 L/h/kg; clearance [24]: 1.12 L/h/kg |
| COc1cnc(O[C@@H]2C[C@H]3C(=O)N[C@]4(C(=O)NS(=O)(=O)C5CC5)C[C@H]4/C=C\CCCC[C@@H](C)[C@H](NC(=O)OC(C)(C)C)C(=O)N3C2)c2cc(Cl)ccc12 | 11.5 min | 11 nM | 0.9 nM | 10.7 nM | 1.1 nM | 75.5 nM | 0.25 nM | 1.9 nM |  |
| CC[C@@H]1C[C@H](C)CC/C=C\[C@@H]2C[C@@]2(C(=O)NS(=O)(=O)C2CC2)NC(=O)[C@@H]2C[C@@H](Oc3ncc(OC)c4ccccc34)CN2C(=O)[C@H]1NC(=O)OC(C)(C)C | 8.6 min | 0.16 nM | 2.2 nM | 12.6 nM | 5.1 nM |  | 1.5 nM | 18 nM |  |
| COc1cnc(O[C@@H]2C[C@H]3C(=O)N[C@]4(C(=O)NS(=O)(=O)C5CC5)C[C@H]4/C=C\CCCC[C@@H](C)[C@H](NC(=O)OC(C)(C)C(F)(F)F)C(=O)N3C2)c2cc(Cl)ccc12 | 30.3 min | 12.8 nM | 0.6 nM | 17.9 nM | 1.7 nM | 42.5 nM | 0.48 nM | 6.8 nM |  |
| COc1cnc(O[C@@H]2C[C@H]3C(=O)N[C@]4(C(=O)NS(=O)(=O)C5CC5)C[C@H]4/C=C\CCCC[C@@H](C)[C@H](NC(=O)OC(C)(C)C(F)(F)F)C(=O)N3C2)c2ccccc12 | 18.6 min | 2.2 nM | 0.8 nM | 11.5 nM | 1.5 nM | 37.3 nM | 0.3 nM | 21 nM |  |
| COc1cnc(O[C@@H]2C[C@H]3C(=O)N[C@]4(C(=O)NS(=O)(=O)C5CC5)C[C@H]4/C=C\CC[C@H](C)C[C@@H](C)[C@H](NC(=O)OC(C)(C)C)C(=O)N3C2)c2cc(Cl)ccc12 |  | 50 nM | 5 nM | 700 nM | 19 nM |  | 4 nM | 25 nM |  |
| CC[C@@H]1C[C@H](C)CC/C=C\[C@@H]2C[C@@]2(C(=O)NS(=O)(=O)C2CC2)NC(=O)[C@@H]2C[C@@H](Oc3ncc(OC)c4ccccc34)CN2C(=O)[C@H]1NC(=O)OC(C)(C)C(F)(F)F | 37.7 min | 1.2 nM | 1 nM | 8.3 nM | 1.5 nM | 8 nM | 0.5 nM | 17 nM | bioavailability [8]: 61%; Cmax [9]: 2.95 µM; concentration at 24 h [10]: 2.36 µM; half-life [12]: 288 min; concentration at 24 h [13]: 0.072 µM; clearance [14]: 0.344 L/h/kg; Kp at 24 h [15]: 33; AUC(0-t) at 24 h [16]: 18.8 µM·h |
| COc1cnc(O[C@@H]2C[C@H]3C(=O)N[C@]4(C(=O)NS(=O)(=O)C5CC5)C[C@H]4/C=C\CC[C@@H](C)C[C@@H](C)[C@H](NC(=O)OC(C)(C)C)C(=O)N3C2)c2cc(Cl)ccc12 | 6.7 min | 4.4 nM | 1.2 nM | 4 nM | 1.2 nM |  | 0.6 nM | 1.3 nM |  |
| [2H]C([2H])([2H])Oc1cnc(O[C@@H]2C[C@H]3C(=O)N[C@]4(C(=O)NS(=O)(=O)C5(C)CC5)C[C@H]4/C=C\CC[C@@H](C)C[C@@H](C)[C@H](NC(=O)OC(C)(C)C(F)(F)F)C(=O)N3C2)c2ccccc12 | 18 min |  | 0.6 nM | 1.6 nM | 0.5 nM | 4 nM | 0.4 nM | 2.3 nM |  |
